The subject of this assay is L. donovani-infected THP-1 macrophages, intracellular amastigote imaging. Kind of assay: intracellular L. donovani amastigote inhibition, imaging, THP-1 host macrophages, host toxicity (AID 1159564).
Where [1] appears, read: measured here: THP-1 host cell toxicity.
Where [2] appears, read: measured here: amastigotes per macrophage.

Each structure is given as a SMILES string. Active and inactive are the calls of the source. How the calls were made is not given here.

Broadly, the IC50 is the point on the concentration scale where inhibition reaches its midpoint.

As to `CNC(=O)C1Cc2ccccc2N1C(=O)Cc1ccccc1` (centres undefined), the IC50 is > 50 µM (inactive). Besides, under setting [1], the IC50 was greater than 50 µM. Besides, the IC50 under setting [2] was greater than 50 µM.
For the molecule `COc1cc(Cl)c(C)cc1NC(=O)c1ccc([N+](=O)[O-])s1`, the IC50 is 6.3 µM. For the same molecule, the IC50 under setting [1] was greater than 50 µM. This molecule displayed an IC50 under setting [2] of 5 µM.
On to `Clc1ccc(Sc2cnccc2N2CCOCC2)cc1`, for which the IC50 is > 50 µM (inactive). In addition, the IC50 under setting [1] is greater than 50 µM. The molecule also had an IC50 under setting [2] of 10 µM.
Consider `CN1C(=O)c2ccccc2Sc2ccc(NC(=O)NCc3ccco3)cc21`, for which the IC50 was > 50 µM (inactive). This molecule also displayed an IC50 under setting [1] greater than 50 µM. For the same molecule, the IC50 under setting [2] was 25 µM.
Regarding `Cc1cc2cncn2c(C2CCCCN2C(=O)c2cccs2)n1` (centres undefined), the IC50 is > 50 µM (inactive). The IC50 under setting [1] was greater than 50 µM. Under setting [2], this molecule showed an IC50 greater than 50 µM.
Regarding `O=C1CSC(c2cccnc2)N1c1ccc(Cl)cc1Cl` (centres undefined), the IC50 was > 50 µM (inactive). For the same molecule, the IC50 under setting [1] was greater than 50 µM. Under setting [2], this molecule returned an IC50 greater than 50 µM.
In the case of `O=S(=O)(c1cccc(CSc2nnc(-c3ccc4c(c3)OCO4)o2)c1)N1CCOCC1`, the IC50 was 0.79 µM. The molecule further showed an IC50 under setting [1] greater than 50 µM. Under setting [2], this molecule yielded an IC50 of 0.25 µM.
Taken in the same sequence, the figures for `Cc1[nH]nc(-c2nc3ccccc3[nH]2)c1C(=O)NC1CCCNC1` (centres undefined) were 6.3 µM, 1.6 µM and 6.3 µM.
For the molecule `N#Cc1cnc(Nc2cccc(CCN3CCOCC3)c2)nc1Nc1ccccc1C(N)=O`, the IC50 was 1.6 µM. Besides, under setting [1], the IC50 was 0.79 µM. Under setting [2], this molecule returned an IC50 of 1 µM.
For `O=C(c1cccc(Nc2ncc(-c3ccc4c(c3)OCO4)cn2)c1)N1CCSC1`, the half-inhibitory concentration (IC50) is 2 µM. This molecule showed an IC50 under setting [1] of 13 µM. The molecule further gave an IC50 under setting [2] of 1 µM.
With `CN1CCN(c2nc(-c3ccc(Cl)cc3)c3c(N)n(C)nc3n2)CC1`, the IC50 is 40 µM. For the same molecule, the IC50 under setting [1] stood at 40 µM. The IC50 under setting [2] was found to be 32 µM.
Take `Cc1cc(C#N)c([N+](=O)[O-])cc1Br`: the IC50 is 40 µM. Also, under setting [1], the IC50 came out at 25 µM. Further, the IC50 under setting [2] was determined as 32 µM.
Taken in the same sequence, the figures for `OCCCNc1nc(Nc2ccncc2)nc2ccccc12` were > 50 µM (inactive), greater than 50 µM and greater than 50 µM.
For `CC(c1cc(Cl)cc(Cl)c1)N(C)c1ncc2c(N)nc(N)nc2n1` (centres undefined), the IC50 is 0.79 µM. This molecule also gave an IC50 under setting [1] of 32 µM. The same molecule gave an IC50 under setting [2] of 0.25 µM.
`Oc1cccnc1-c1n[nH]c(Cc2ccccc2)n1`: the IC50 is 3.2 µM. The molecule also gave an IC50 under setting [1] of 16 µM. The IC50 under setting [2] is 2 µM.
Take `COc1cnc2ccc(=O)n(CCN3CCC(NC/C=C/c4cc(F)ccc4F)CC3)c2c1`: the IC50 is 5 µM. Moreover, under setting [1], the IC50 was found to be 40 µM. The molecule also displayed an IC50 under setting [2] of 2 µM.
For `Cc1ccccc1OCC(=O)N1CCCN(c2cccnn2)CC1`, in that order: > 50 µM (inactive), greater than 50 µM and greater than 50 µM.
For `COc1ccc(Nc2nc(-c3ccccn3)cc(N3CCCC(O)C3)n2)cc1` (centres undefined), in that order: 1 µM, 25 µM and 0.79 µM.
Taken in the same sequence, the figures for `Cc1cc(C)nc(N2CCC(N(Cc3cccnc3)C(=O)c3cccc(C#N)c3)CC2)n1` were > 50 µM (inactive), greater than 50 µM and greater than 50 µM.
Regarding `CC(C)(C)C(Cn1ccnc1)NC(=O)c1ccc2nc(C3CC3)oc2c1` (centres undefined), the IC50 was > 50 µM (inactive). The molecule also returned an IC50 under setting [1] of 16 µM. The IC50 under setting [2] is greater than 50 µM.
Taken in the same sequence, the figures for `COc1ccc(S(=O)(=O)NC(C)C)cc1Nc1ncc(-c2cccc(F)c2)cn1` were > 50 µM (inactive), greater than 50 µM and greater than 50 µM.
As to `Cc1nc(C(=O)Nc2ccc3c(c2)OCO3)nn1-c1ccc(Cl)cc1`, the concentration for half-maximal inhibition (IC50) was 2 µM. This molecule also yielded an IC50 under setting [1] of 13 µM. Moreover, the half-inhibitory concentration (IC50) under setting [2] stood at 1.6 µM.
Turning to `N#Cc1ccc(Br)cc1[N+](=O)[O-]`, the IC50 is 20 µM. Also, under setting [1], the IC50 was determined as 25 µM. Under setting [2], the IC50 amounted to 13 µM.
As for `O=C(COc1ccccc1)Nc1ccccc1C(=O)Nc1nccs1`, the IC50 was > 50 µM (inactive). The same molecule returned an IC50 under setting [1] of 7.9 µM. The IC50 under setting [2] was greater than 50 µM.
On to `CN(C(=O)Nc1ccc2c(c1)CCN(C1CCC1)CC2)c1ccc(C#N)cc1`, for which the IC50 is > 50 µM (inactive). For the same molecule, under setting [1], the IC50 is greater than 50 µM. The same molecule gave an IC50 under setting [2] greater than 50 µM.
Take `CN(Cc1ccc(C(N)=O)cc1)C(c1ccc(F)cc1)c1cccnc1` (centres undefined): the IC50 is > 50 µM (inactive). In addition, the IC50 under setting [1] is greater than 50 µM. This molecule displayed an IC50 under setting [2] greater than 50 µM.
With `CCS(=O)(=O)Nc1ccc(C2=NN(C(=O)c3cccs3)C(c3ccccc3OC)C2)cc1` (centres undefined), the IC50 is 7.9 µM. For the same molecule, under setting [1], the IC50 is greater than 50 µM. Also, under setting [2], the IC50 was 7.9 µM.
With `Cn1nccc1-c1cc(OC(CN)c2ccccc2)cnc1-c1ccco1` (centres undefined), the IC50 was > 50 µM (inactive). Under setting [1], this molecule had an IC50 of 16 µM. Under setting [2], this molecule gave an IC50 of 32 µM.

Values taken from PubChem BioAssay AID1159564 (GlaxoSmithKline (GSK), 2015).
